Tests used:
[1] = surface tension of aqueous solution (0.1%); format: physicochemical; settings: for γs (surface tension): aqueous solution at a concentration of 0.1%; for surface tension: aqueous solution containing 0.1%
Description: (§1) The surface tension of an aqueous solution containing 0.1% of this salt is 19.2 mN m^-1 at 25° C. The interfacial tension of an aqueous solution containing 0.1% of this salt, in equilibrium with cyclohexane, is 5.8 mN m^-1 at 25° C.
(§2) The surface tension of an aqueous solution containing 0.1% of this salt is 15.5 mN m^-1 at 25° C. The interfacial tension of an aqueous solution containing 0.1% of this salt, in equilibrium with cyclohexane, is 6.4 mN m.-1 at 25° C.
This yields the corresponding quaternary salts of formula: [drawing 19] which are colorless or slightly orange-colored pastes. These salts are completely water-soluble. Their yield and the surface tension at 25° C. of an aqueous solution at a concentration of 0.1% are shown in the second and third columns of Table 5.
(§3) The surface tension Ys and interfacial tension Yi (relative to cyclohexane)of the ammonium salt in question, which are measured at 25° C. in aqueous solution at a concentration of 0.1%, are shown in the fourth and fifth columns of Table 6, the third column showing the yield.
(§4) The surface tension of an aqueous solution containing 0.1% of this salt is 15.5 mN m^-1 at 25° C. The interfacial tension in relation to cyclohexane in the same conditions is 5.5 mN m^-1 .
(§5) By proceeding in the same manner starting with 1,3-dibromopropane, the double quaternary salt of formula: [drawing 24] is obtained in a 98% yield. The surface tension of an aqueous solution containing 0.1% of this salt is 16.4 mN m^-1 at 25° C. The interfacial tension relative to cyclohexane in the same conditions is 7.7 mN m^1.
The surface tension of an aqueous solution containing 0.1% of this N-oxide at 25° C. is 16.3 mN m^-1
The surface tension of an aqueous solution containing 1 0.1% of this betaine is 16.2 mN m^-1.

[2] = interfacial tension of aqueous solution (0.1%) relative to cyclohexane; format: physicochemical; settings: 25° C.; for γi (interfacial tension relative to cyclohexane): Table 6, aqueous solution at a concentration of 0.1%
Description: as §1, §2, §3, §4, §5

[3] = aqueous solution containing 0.1%, cyclohexane

Structure (SMILES) | γs (surface tension) ([1]; Table 6, 25° C.) [mN m^-1] | γi (interfacial tension relative to cyclohexane) ([2]; cyclohexane) [mN m^-1] | further results
CCCCCCCC[N+](C)(C)CCNC(=S)NCCC(F)(F)C(F)(F)C(F)(F)C(F)(F)C(F)(F)C(F)(F)C(F)(F)C(F)(F)F [C8 F17 / C8 H17] | 15.9 | 3.2 | 
CCCCCCCCCCCC[N+](C)(C)CCNC(=S)NCCC(F)(F)C(F)(F)C(F)(F)C(F)(F)F [C4 F9 / C12 H25] | 23.1 | 1.9 | 
CCCCC[N+](C)(C)CCNC(=S)NCCC(F)(F)C(F)(F)C(F)(F)C(F)(F)C(F)(F)C(F)(F)C(F)(F)C(F)(F)F [C8 F17 / C5 H11] | 16 | 2 | 
C[N+](C)(C)CCNC(=S)NCCC(F)(F)C(F)(F)C(F)(F)C(F)(F)C(F)(F)C(F)(F)C(F)(F)C(F)(F)F |  |  | surface tension ([1]; 25° C.): 15.5 mN m^-1; interfacial tension in equilibrium with cyclohexane [2, 3]: 6.4 mN m.-1
CCCCCCCC[N+](C)(C)CCNC(=S)NCCC(F)(F)C(F)(F)C(F)(F)C(F)(F)C(F)(F)C(F)(F)F [C6 F13 / C8 H17] | 15.9 | 1.4 | 
CCCCCCCCCCCCCCCC[N+](C)(C)CCNC(=S)NCCC(F)(F)C(F)(F)C(F)(F)C(F)(F)C(F)(F)C(F)(F)F [C6 F13 / C16 H33] | 20.3 | 0.7 | 
CCCCCCCCCCCC[N+](C)(C)CCNC(=S)NCCC(F)(F)C(F)(F)C(F)(F)C(F)(F)C(F)(F)C(F)(F)C(F)(F)C(F)(F)F [C8 F17 / C12 H25] | 15.2 | 2.2 | 
C[N+](C)(CCNC(=S)NCCC(F)(F)C(F)(F)C(F)(F)C(F)(F)C(F)(F)C(F)(F)F)CC[N+](C)(C)CCNC(=S)NCCC(F)(F)C(F)(F)C(F)(F)C(F)(F)C(F)(F)C(F)(F)F |  |  | surface tension ([1]; 25° C.): 15.5 mN m^-1; interfacial tension in equilibrium with / relative to cyclohexane [2, 3]: 5.5 mN m^-1
CCCCCCCC[N+](C)(C)CCNC(=S)NCCC(F)(F)C(F)(F)C(F)(F)C(F)(F)F [C4 F9 / C8 H17] | 19.7 | 0.7 | 
C[N+](C)(C)CCNC(=S)NCCC(F)(F)C(F)(F)C(F)(F)C(F)(F)C(F)(F)C(F)(F)F |  |  | surface tension ([1]; 25° C.): 19.2 mN m^-1; interfacial tension in equilibrium with / relative to cyclohexane [2, 3]: 5.8 mN m^-1
C[N+](C)([O-])CCNC(=S)NCCC(F)(F)C(F)(F)C(F)(F)C(F)(F)C(F)(F)C(F)(F)F |  |  | surface tension ([1]; 25° C.): 16.3 mN m^-1
C=CC[N+](C)(C)CCNC(=S)NCCC(F)(F)C(F)(F)C(F)(F)C(F)(F)C(F)(F)C(F)(F)F [CH2CHCH2Br] |  |  | γs (surface tension) ([1]; Table 5, 25° C.): 16.4 mN m^-1
CCCCCCCCCCCC[N+](C)(C)CCNC(=S)NCCC(F)(F)C(F)(F)C(F)(F)C(F)(F)C(F)(F)C(F)(F)F [C6 F13 / C12 H25] | 17.5 | 0.8 | 
C[N+](C)(CCNC(=S)NCCC(F)(F)C(F)(F)C(F)(F)C(F)(F)C(F)(F)C(F)(F)F)CC(=O)[O-] |  |  | surface tension ([1]; temperature not given): 16.2 mN m^-1
C[N+](C)(CCO)CCNC(=S)NCCC(F)(F)C(F)(F)C(F)(F)C(F)(F)C(F)(F)C(F)(F)F [HOC2 H4Br] |  |  | γs (surface tension) ([1]; Table 5, 25° C.): 15.4 mN m^-1
C[N+](C)(CCC[N+](C)(C)CCNC(=S)NCCC(F)(F)C(F)(F)C(F)(F)C(F)(F)C(F)(F)C(F)(F)F)CCNC(=S)NCCC(F)(F)C(F)(F)C(F)(F)C(F)(F)C(F)(F)C(F)(F)F |  |  | surface tension ([1]; 25° C.): 16.4 mN m^-1; interfacial tension relative to cyclohexane ([2]; in the same conditions: aqueous solution containing 0.1%): 7.7 mN m^1
CCCCCCCCCCCCCCCC[N+](C)(C)CCNC(=S)NCCC(F)(F)C(F)(F)C(F)(F)C(F)(F)F [C4 F9 / C16 H33] | 26.8 | 2.1 | 
C[N+](C)(CCNC(=S)NCCC(F)(F)C(F)(F)C(F)(F)C(F)(F)C(F)(F)C(F)(F)F)Cc1ccccc1 |  |  | γs (surface tension) ([1]; Table 5, 25° C.): 17.4 mN m^-1

— patent US5026910A, “Polyfluoroalkyl nitrogen compounds, processes for their preparation and their use” (Societe Atochem, priority 1989, dated 1991)
